According to patent publication US8491891B2, “Human beta-glucuronidase mutants with elevated enzymatic activity under physiological conditions and method for identifying such” (Academia Sinica, priority 2008, dated 2013):
Numbering of substitutions follows the chain as printed. Names and notes keep the numbering of the source. Read-outs that look alike come from different tables or passages of the source. Marks after values point to notes of the source that are not given here.

B1: E2-20: human beta-glucuronidase variant L243Q, L255Q, T545G, SEQ ID NO: 10 (protein)
chain: AAQPALQGGMLYPQESPSRECKELDGLWSFRADFSDNRRRGFEEQWYRRPLWESGPTVDMPVPSSFNDISQDWRLRHFVGWVWYEREVILPERWTQDLRTRVVLRIGSAHSYAIVWVNGVDTLEHEGGYLPFEADISNLVQVGPLPSRLRITIAINNTLTPTTLPPGTIQYLTDTSKYPKGYFVQNTYFDFFNYAGLQRSVLLYTTPTTYIDDITVTTSVEQDSGQVNYQISVKGSNQFKLEVRLLDAENKVVANGTGTQGQLKVPGVSLWWPYLMHERPAYLYSLEVQLTAQTSLGPVSDFYTLPVGIRTVAVTKSQFLINGKPFYFHGVNKHEDADIRGKGFDWPLLVKDFNLLRWLGANAFRTSHYPYAEEVMQMCDRYGIVVIDECPGVGLALPQFFNNVSLHHHMQVMEEVVRRDKNHPAVVMWSVANEPASHLESAGYYLKMVIAHTKSLDPSRPVTFVSNSNYAADKGAPYVDVICLNSYYSWYHDYGHLELIQLQLATQFENWYKKYQKPIIQSEYGAEGIAGFHQDPPLMFTEEYQKSLLEQYHLGLDQKRRKYVVGELIWNFADFMTEQSPTRVLGNKKGIFTRQRQPKSAAFLLRERYWKIANETRYPHSVAKSQCLENSPFTSVD
modifications: Laboratory generated variant, E2-20, based upon the human beta-glucuronidase
B2: S28: human beta-glucuronidase variant Q518R, T545S, E595Y, T599F, SEQ ID NO: 9 (protein)
chain: B1 chain with Q226L, Q238L, Q501R, G528S, E578Y, T582F
modifications: Laboratory generated variant, S28, based upon the human beta-glucuronidase
B3: E1-A: human β-glucuronidase single amino acid mutant T545A (protein, UniProt P08236 23-651, looked up, variant T545A)
Beta-glucuronidase: LQGGMLYPQESPSRECKELDGLWSFRADFSDNRRRGFEEQWYRRPLWESGPTVDMPVPSSFNDISQDWRLRHFVGWVWYEREVILPERWTQDLRTRVVLRIGSAHSYAIVWVNGVDTLEHEGGYLPFEADISNLVQVGPLPSRLRITIAINNTLTPTTLPPGTIQYLTDTSKYPKGYFVQNTYFDFFNYAGLQRSVLLYTTPTTYIDDITVTTSVEQDSGLVNYQISVKGSNLFKLEVRLLDAENKVVANGTGTQGQLKVPGVSLWWPYLMHERPAYLYSLEVQLTAQTSLGPVSDFYTLPVGIRTVAVTKSQFLINGKPFYFHGVNKHEDADIRGKGFDWPLLVKDFNLLRWLGANAFRTSHYPYAEEVMQMCDRYGIVVIDECPGVGLALPQFFNNVSLHHHMQVMEEVVRRDKNHPAVVMWSVANEPASHLESAGYYLKMVIAHTKSLDPSRPVTFVSNSNYAADKGAPYVDVICLNSYYSWYHDYGHLELIQLQLATQFENWYKKYQKPIIQSEYGAEAIAGFHQDPPLMFTEEYQKSLLEQYHLGLDQKRRKYVVGELIWNFADFMTEQSPTRVLGNKKGIFTRQRQPKSAAFLLRERYWKIANETRYPHSVAKSQCLENSLFT
B4: E1-Y: human β-glucuronidase single amino acid mutant T545Y (protein, UniProt P08236 23-651, looked up, variant T545Y)
Beta-glucuronidase: B3 Beta-glucuronidase with A523Y

Columns and labels:
[1] = Serum concentrations of CPT-11, SN-38 and SN-38G after CPT-11 administration; details: for Serum levels in mice bearing EJ versus EJ/mβG tumor: 2 h after CPT-11 administration; for Serum concentrations in mice bearing EJ versus EJ/mβG tumor: 8 h or 24 h after CPT-11 administration
[2] = Intratumoral concentrations of CPT-11, SN-38 and SN-38G after CPT-11 treatment (SPE-HPLC)
Protocol: Tumors were collected 2, 8 and 24 h after CPT treatment, immediately dispersed in ice-cold acidic methanol (methanol: water: perchloric acid=20:20:1), and homogenized 60 sec on an Ultraturax tissue homogenizer at 20,000 rpm. The samples were clarified by centrifugation at 15,000 g for 5 min at 4° C. Supernatants were diluted with 0.1 M KH2PO4 and then separated by SPE-HPLC on a μBondapack column with 27% acetonitrile in 0.1 M potassium phosphate buffer pH=2.6. […] These three analytes were quantified by comparison with standard curves generated with analyte concentrations ranging from 2.0 pg to 200 ng.

[3] = tested on: EJ human bladder carcinoma cells; test: Sensitivity of EJ cells to CPT-11, SN-38, SN-38G (3H-thymidine incorporation)
Protocol: (§1) Cell viability was examined by measuring ^3H-thymidine incorporation into cellular DNA after the cells were cultured for an additional 24 h in fresh medium.

EJ/mβG cells = test: Sensitivity of EJ/mβG cells to CPT-11, SN-38, SN-38G (3H-thymidine incorporation); details: for IC50: read-out: IC50 (cytotoxicity), EJ/mβG cells
Protocol: EJ human bladder carcinoma cells were cultured in RPMI medium supplemented with 10% bovine calf serum in a humidified atmosphere of 5% CO2 in air at 37° C.
as §1

[4] = Relative activity of membrane-tethered human β-glucuronidase variants on 3T3 cells by flow cytometry (FL4/FL1); format: cell-based; details: membrane-tethered enzyme, pH 7.0, substrate ELF97 β-D-glucuronide
Protocol: The 3T3 cell libraries mentioned above were screened by FACS analysis for cells that express human β-glucuronidase variants with elevated enzymatic activity. 10^7 3T3 cells expressing membrane-bound human β-glucuronidase variants were washed and suspended in 0.4 ml BSA/HBSS (5.4 mM KCl, 0.3 mM Na2HPO4, 0.4 mM KH2PO4, 4.2 mM NaHCO3, 1.3 mM CaCl2, 0.5 mM MgCl2, 0.6 mM MgSO4, 137 mM NaCl, 5.6 mM D-glucose, pH 7.4) containing 0.5% bovine serum albumin (BSA) and 20 μg/ml 7G8-FITC for 30 min at 4° C. Cells were then washed and incubated with 25, 50 or 100 μM ELF97 β-D-glucuronide at defined pH values in 50 mM Bis-Tris, 25 mM glucose, 85.6 mM NaCl, 5.4 mM KCl, 0.6 mM MgSO4, 1.3 mM CaCl2) at 37° C. for 10 min. The cells were washed with ice-cold 0.5% BSA/HBSS and suspended in 0.5% BSA/HBSS containing 5 μg/ml propidium iodide (Sigma). Cells were then sorted on a FACSVantage DiVa (Becton, Dickinson and Company, Franklin Lakes, N.J.) equipped with an Enterprise IIC argon laser for dual excitation at 488 and 351-364 nm. Dead cells (propidium iodide positive, high FL3 fluorescence) were gated out before 7G8-FITC immunofluorescence was detected at excitation/emission wavelengths of 488/515 nm (FL1) and ELF97 was detected at excitation/emission wavelengths of 351/530 nm (FL4). […] The sorted cells were cultured for 4-10 days for sequential rounds of cell sorting or RNA extraction. Flow cytometer data was analyzed using Flowjo (Tree star, Ashland, Oreg.).
Independent 3T3 clones (5×10^7) in library EP2 mentioned above were immunofluorescence stained with 7G8-FITC and reacted with ELF97 β-D-glucuronide at pH 7.0. Sixteen individual cell clones were isolated after three rounds of sorting and the human β-glucuronidase genes were sequenced. […] Table 1 below lists amino acid substitutions in five exemplary variants and their relative enzymatic activities.

[5] = Kinetic values (Km, kcat) of soluble recombinant human β-glucuronidase and variants; format: biochemical
Protocol: Recombinant His-tagged wild-type human β-glucuronidase and its variants (soluble) were produced in and purified from stable 3T3 fibroblast lines, following the method described above also the method described in Wu et al., Biotechnol Appl Biochem 40:167-172 (2004).
The pH-dependent enzyme activities of the above-mentioned recombinant human beta-glucuronidase and variants were measured in triplicate with 0.1 mM ELF97 β-D-glucuronide at 37° C. for 30 minutes at a defined pH ranging from 3-10 in a beta-glucuronidase reaction buffer (50 mM Bis-Tris, 50 mM triethanol amine, 100 mM acetic acid, 0.1% BSA). The reaction was quenched by adding an equal volume of a stop buffer (2 M Tris-HCl, 0.8 M sodium bicarbonate, pH 8). The fluorescence of ELF97 was measured in a Gemini EM microplate spectrofluorometer (Molecular Device, Sunnyvale, Calif.) at excitation/emission wavelengths of 355/555 nm. Kinetic values for human beta-glucuronidase substrate hydrolysis were determined by diluting ELF97 β-D-glucuronide (2 mM) in a pH 4.5 or pH 7.0 beta-glucuronidase reaction buffer 1:1 with defined concentrations of human beta-glucuronidase in 200 μl. Fluorescence was immediately measured under thermal control at 37° C. for 8-10 min. The measurement was repeated using the same amount of enzyme at different substrate concentrations in an optimal range. The acquired readings were converted to product concentration based on preestablished standard curves. Double reciprocal plots were used to determine Km and kcat. Kinetic assays were performed at least 3 times and mean values were calculated. The stability of recombinant human beta-glucuronidase variants was carried out by measuring their enzymatic activity at time 0 and again after incubating 5 μg purified enzymes in PBS (containing 0.5 mg/ml BSA) at 37° C. for 14 days. The enzymatic activities of the human beta-glucuronidase variants were measured in triplicate with 0.5 mM 4-methylumbelliferyl β-D-glucuronide at 37° C. for 15 minutes at pH 7.0 in β-glucuronidase reaction buffer. The reaction was terminated by adding an equal volume of a stop buffer (1 M glycine, 0.5 M sodium bicarbonate, pH 11) and the fluorescence was measured at excitation/emission wavelengths of 355/460 nm in a microplate spectrofluorometer.

[6] = Enzymatic activity of purified position-545 single mutants at pH 7.0; format: biochemical; details: purified enzyme
From the text: DNA plasmids were extracted from 12 individual cell clones and subjected to DNA sequencing to examine mutations in the genes encoding human β-glucuronidase variants. All human β-glucuronidase variants being examined had mutations at position 545 (50% T→A and 50% T→S). To determine the effect of amino acid substitutions at position 545 on enzyme activity, the single amino acid mutants T545A (E1-A), T545G (E1-G), T545S (E1-S) and T545Y (E1-Y) were generated and purified from the culture medium of stably transfected fibroblasts. […] Thus, the single amino acid substitution at position 545 affected human β-glucuronidase activity at neutral pH.

[7] = 24 h after CPT-11 10 mg/kg i.v.

Row | Molecule | Serum levels in mice bearing EJ versus EJ/mβG tumor [1] | Serum concentrations in mice bearing EJ versus EJ/mβG tumor [1] | IC50 (EJ/mβG cells; pH 6.6) [nM] | IC50 (EJ/mβG cells; pH 7.4) [nM] | Relative activity (FL4/FL1 normalized to wild-type human β-glucuronidase) [4] | Km ([5]; pH 4.5, 37° C.) [µM] | kcat ([5]; pH 4.5, 37° C.) [s⁻¹] | Km ([5]; pH 7.0, 37° C.) [µM] | kcat ([5]; pH 7.0, 37° C.) [s⁻¹] | Enzymatic activity relative to wild-type human β-glucuronidase [6] | other results
1 | CCc1c2c(nc3ccc(O)cc13)-c1cc3c(c(=O)n1C2)COC(=O)[C@]3(O)CC [SN-38] | similar | no significant differences | 2 | 6 | – | – | – | – | – | – | Intratumoral concentration, percent higher in EJ/mβG tumors as compared to EJ tumors ([2]; 2, 8 and 24 h): 65-130%; Difference EJ/mβG vs EJ (EJ values as 100%) ([2]; 2 h): 65.63* %; Concentration in EJ xenografts ([2]; 2 h after CPT-11 10 mg/kg i.v.): 43 ± 10.5 ng drug/g tumor; Concentration in EJ/mβG xenografts ([2]; 2 h after CPT-11 10 mg/kg i.v.): 71 ± 13 ng drug/g tumor; Difference EJ/mβG vs EJ (EJ values as 100%) ([2]; 8 h): 127.10* %; Concentration in EJ xenografts ([2]; 8 h after CPT-11 10 mg/kg i.v.): 7.5 ± 0.93 ng drug/g tumor; Concentration in EJ/mβG xenografts ([2]; 8 h after CPT-11 10 mg/kg i.v.): 17 ± 5.56 ng drug/g tumor; Difference EJ/mβG vs EJ (EJ values as 100%) ([2]; 24 h): 71.43* %; Concentration in EJ xenografts [2, 7]: 0.07 ± 0.02 ng drug/g tumor; Concentration in EJ/mβG xenografts [2, 7]: 0.12 ± 0.01 ng drug/g tumor; IC50 ([3]; read-out: IC50 (cytotoxicity), pH 6.6): 2 nM; IC50 ([3]; read-out: IC50 (cytotoxicity), pH 7.4): 6 nM
2 | SN-38G | similar | no significant differences | 32 | 190 | – | – | – | – | – | – | Cytotoxicity at the highest concentration investigated ([3]; 1000 nM): non-toxic; Sensitivity of EJ/mβG cells relative to EJ cells (EJ/mβG cells; EJ/mβG vs EJ cells): over 30 times
3 | B1 | – | – | – | – | 116 | 6.7 ± 0.5 | 71 ± 3 | 38 ± 5 | 30 ± 5 | – | Km as compared to E1-G [5]: about a three-fold smaller Km; kcat/Km at pH 7.0, fold greater than kcat/Km of wild type at pH 4.5 ([5]; variant at pH 7.0 vs wild type at pH 4.5): about 2 fold
4 | B2 | – | – | – | – | 47 | 16 ± 3 | 79 ± 3 | 72 ± 24 | 26 ± 3 | – | –
5 | B3 | – | – | – | – | – | – | – | – | – | about 2.5 fold | –
6 | B4 | – | – | – | – | – | – | – | – | – | almost inactive | –
